The record followed here is the OPERA property sets (Mansouri et al. 2018).

Each structure is given as a SMILES string. Converted amounts (≈) assume the structure as drawn. Where a SMILES comes first, the peptide text is derived from it.

Details in the first data set: not given
On to `O=S(=O)(O)c1cnc[nH]1`, for which the solubility was found to be 1350 mM (≈ 200000 µg/mL).

Regarding `O=C(O)CCCNC(=O)c1ccccc1`, the solubility came to 62.7 mM (≈ 13000 µg/mL).

In the case of `Cn1c(=O)[nH]n(-c2ccccc2)c1=O`, the solubility worked out at 1.05 mM (≈ 200 µg/mL).

With `O=C1Cc2c(ccc3ccccc23)O1`, the solubility is 1.96 mM (≈ 361 µg/mL).

The compound `CN(C)C1CCC=CCCC1` (stereo unspecified) gave a solubility of 25.1 mM (≈ 3850 µg/mL).

`CC(=O)c1ccc(O)c(C(=O)O)c1` registered a solubility of 5.88 mM (≈ 1060 µg/mL).

`O=C(c1ccco1)N(O)c1ccccc1` had a solubility of 0.64 mM (≈ 130 µg/mL).

Consider `CC(C)C[C@H](N)C(=O)N[C@@H](C)C(=O)NCC(=O)O` (H-Leu-Ala-Gly-OH), for which the solubility is 127 mM (≈ 33000 µg/mL).

Compound `CCS(=O)(=O)CI` had a solubility of 107 mM (≈ 25000 µg/mL).

As to `O=C(O)C1(O)CCCCC1`, the solubility came out at 465 mM (≈ 67000 µg/mL).

`CCOC(C)C(=O)C=O` (stereo unspecified): the solubility turned out to be 699 mM (≈ 91000 µg/mL).

As for `NC(=O)NCl`, the solubility stood at 2120 mM (≈ 200000 µg/mL).

Compound `NC(=O)C[C@H](NC(=O)CCl)C(=O)O` displayed a solubility of 479 mM (≈ 100000 µg/mL).

The compound `Cc1nc2c(c(=O)[nH]c(=O)n2C)n1C` returned a solubility of 286 mM (≈ 55600 µg/mL).

As for `COc1ccc(NC(=N)Nc2ccc(OC)cc2)cc1`, the solubility came to 1.84 mM (≈ 500 µg/mL).

`CC(C)SS(=O)C(C)C` (stereo unspecified) registered a solubility of 150 mM (≈ 25000 µg/mL).

For the compound `C=CC(O)C(=O)OCC` (stereo unspecified), the solubility was determined as 2310 mM (≈ 300000 µg/mL).

Compound `CCCOCC(O)COCCC` registered a solubility of 454 mM (≈ 80000 µg/mL).

`COC1CCCC(C)O1` (stereo unspecified) displayed a solubility of 256 mM (≈ 33300 µg/mL).

`CCCc1cc(F)ccc1O` had a solubility of 13 mM (≈ 2000 µg/mL).

Compound `CC12CCC(CC1=O)C(C)(C)O2` (stereo unspecified) registered a solubility of 119 mM (≈ 20000 µg/mL).

Consider `CC(C)C(Br)C(=O)N[C@@H](C)C(=O)O` (mixture of isomers), for which the solubility worked out at 329 mM (≈ 83000 µg/mL).

`COCCCCC=O` showed a solubility of 2870 mM (≈ 333000 µg/mL).

The compound `CC(C)(NC(=O)c1ccccc1)C(N)=O` returned a solubility of 24.2 mM (≈ 5000 µg/mL).

The compound `O=C(O)C(S)CS` (stereo unspecified) came in with a solubility of 579 mM (≈ 80000 µg/mL).

`CC(=O)OCCCOC(C)=O` registered a solubility of 624 mM (≈ 100000 µg/mL).

Regarding `Cn1cc(I)ccc1=O`, the solubility is 979 mM (≈ 230000 µg/mL).

`CCCC(Br)C(=O)NC(N)=O` (stereo unspecified) yielded a solubility of 37.3 mM (≈ 8330 µg/mL).

`CC1(O)CCC(C)(O)CC1` (stereo unspecified): the solubility was determined as 243 mM (≈ 35000 µg/mL).

Compound `O=S(=O)(O)c1cc(O)c2cc(Nc3ccccc3)ccc2c1` had a solubility of 10.6 mM (≈ 3330 µg/mL).

Compound `O=C(O)C=CCCC(=O)O` yielded a solubility of 62.4 mM (≈ 9000 µg/mL).

The compound `CCCCCc1ccc(O)cc1O` showed a solubility of 11.1 mM (≈ 2000 µg/mL).

Compound `Cc1nn(-c2ccccc2)c(N)c1C` returned a solubility of 21.4 mM (≈ 4000 µg/mL).

With `O=P(O)(O)c1cccc2ccccc12`, the solubility turned out to be 24 mM (≈ 5000 µg/mL).

In turn, `CCOC(=O)N[C@@H](C=O)[C@@H](O)[C@H](O)[C@H](O)CO` showed a solubility of 1300 mM (≈ 327000 µg/mL).

Still in this data set, the particulars now being: 20 °C.
On to `O=C(O)COc1cccc(Cl)c1`, for which the solubility is 6.38 mM (≈ 1190 µg/mL).

Regarding `CSc1ncnc2nccnc12`, the solubility came to 4.32 mM (≈ 769 µg/mL).

For `CC(=O)Nc1ccc(C)cc1F`, the solubility worked out at 18.2 mM (≈ 3040 µg/mL).

The compound `Cc1ncnc2nc[nH]c12` showed a solubility of 1490 mM (≈ 200000 µg/mL).

`CC(C)Cc1ncc[nH]1`: the solubility turned out to be 89.4 mM (≈ 11100 µg/mL).

Turning to `Cc1cc(O)c(C(=O)O)c(O)c1`, the solubility is 8.92 mM (≈ 1500 µg/mL).

`O=S(=O)(c1ccccc1)N1CCCCC1` registered a solubility of 2.91 mM (≈ 655 µg/mL).

Consider `C=CCCCN=C=S`, for which the solubility was 1.26 mM (≈ 160 µg/mL).

With `Brc1ccc2c(c1)Sc1ccccc1N2`, the solubility stood at 0.000773 mM (≈ 0.215 µg/mL).

As to `Cc1cc(C)cc(OCC(=O)O)c1`, the solubility worked out at 4.44 mM (≈ 800 µg/mL).

For the compound `CC1(c2ccccc2)C(=O)NC(=O)NC1=O`, the solubility worked out at 3.48 mM (≈ 760 µg/mL).

`Cc1ncnc2c(O)cccc12`: the solubility is 2.5 mM (≈ 400 µg/mL).

In the case of `CC(=O)CC1=NCCS1`, the solubility came out at 69.8 mM (≈ 10000 µg/mL).

On to `S=c1[nH]sc(=S)[nH]1`, for which the solubility was 17.3 mM (≈ 2600 µg/mL).

Take `O=C(OCCO)c1ccccc1O`: the solubility came out at 69.7 mM (≈ 12700 µg/mL).

Compound `O=c1[nH]c2cncnc2[nH]1` came in with a solubility of 30.6 mM (≈ 4170 µg/mL).

In the case of `O=C(O)C1=CCCCC1`, the solubility worked out at 55.5 mM (≈ 7000 µg/mL).

For `NNC(N)=S`, the solubility turned out to be 110 mM (≈ 10000 µg/mL).

Compound `Cc1ncc2nccnc2n1` gave a solubility of 760 mM (≈ 111000 µg/mL).

For the compound `CCCCCS`, the solubility was found to be 1.5 mM (≈ 156 µg/mL).

The compound `O=C(O)CCCCCCCCCCO` gave a solubility of 1.98 mM (≈ 400 µg/mL).

As to `O=C(O)CCNC(=O)Nc1ccc([N+](=O)[O-])cc1`, the solubility came out at 1.97 mM (≈ 500 µg/mL).

For `Cc1snnc1C(=O)O`, the solubility is 347 mM (≈ 50000 µg/mL).

`CC(O)C(C)Cl` (stereo unspecified): the solubility was 613 mM (≈ 66600 µg/mL).

Take `O=C(O)CCCC(C(=O)O)(c1ccccc1)c1ccccc1`: the solubility amounted to 0.67 mM (≈ 200 µg/mL).

`Cn1c(=O)c2c(n(C)c1=O)n(C)c(=O)n2C` returned a solubility of 112 mM (≈ 25000 µg/mL).

Compound `Oc1ccc2c(c1)Sc1ccccc1N2` gave a solubility of 2.66 mM (≈ 573 µg/mL).

Compound `O=C(NCCO)C(=O)NCCO` showed a solubility of 772 mM (≈ 136000 µg/mL).

On to `Nc1nc2c(O)cccc2s1`, for which the solubility was determined as 12 mM (≈ 2000 µg/mL).

As for `O=c1nccc[nH]1`, the solubility is 4730 mM (≈ 455000 µg/mL).

For the compound `O=c1cccc2[nH]ccnc1-2`, the solubility turned out to be 45 mM (≈ 6580 µg/mL).

For the compound `Oc1cc2ccccc2cc1C1=NCCN1`, the solubility was 0.499 mM (≈ 106 µg/mL).

Regarding `Cc1ccc2[nH]c(=O)c(=O)[nH]c2c1`, the solubility was determined as 0.908 mM (≈ 160 µg/mL).

The compound `O=C(O)CCP(=O)(O)O` showed a solubility of 3170 mM (≈ 488000 µg/mL).

On to `NNC(=O)c1cccnc1`, for which the solubility stood at 729 mM (≈ 100000 µg/mL).

As for `O=C(O)c1cc(Cl)ccc1O`, the solubility was found to be 57.9 mM (≈ 10000 µg/mL).
